From patent US6482827B1, “Matrix metalloproteinase inhibitors” (Pharmacia & Upjohn S.p.A., priority 1997, dated 2002)

Columns and labels:
[1] = clinic; cited from earlier work
stifle joints = test: Animal model of tolerability with MMP inhibitors, histological evaluation of stifle joints; format: in vivo; conditions: rats, intraperitoneal, 10 consecutive days, daily doses of 150 mg/kg or less
Text: Although MMPs have been recognized as drug targets for at least 20 years, and potent MMP inhibitors described by formula (A) have been disclosed since 1986 or before (e.g., see J. P. Dickens et al., U.S. Pat. No. 4,599,361), no drug of this type has arrived at the market yet. This is not because of questions about the therapeutic potential of MMP inhibitors, but because of problems of “peptide-based hydroxamates”, such as aqueous solubility, metabolic stability, and other desirable properties, oral bioavailability in particular (e.g., J. R. Porter, reference above; J. Hodgson, “Remodelling MMPIs”, Biotechnology 13:554-557, 1995). For example, it is well known that most “peptide-based hydroxamates” of general formula (A) are rapidly glucuronidated, oxidized to the carboxylic acid, and excreted in the bile (e.g., see J. Singh et al., Bioorg. Med. Chem. Lett. 5:337-342, 1995, and other references above). Finally, another type of problem of the known inhibitors described by general formula (A) may be one of tolerability. […] We have extended these observations by developing an animal model of tolerability with MMP inhibitors (S. Castellino et al., unpublished), involving intraperitoneal administration of the latter in rats for 10 consecutive days, and histological evaluation of stifle joints at the end of treatment. […]

| SMILES | Tolerability in humans [1] | Histological findings in stifle joints (stifle joints) |
| --- | --- | --- |
| CNC(=O)[C@@H](NC(=O)[C@H](CC(C)C)[C@H](O)C(=O)NO)C(C)(C)C [marimastat] | muscoloskeletal problems |  |
| CNC(=O)[C@@H](NC(=O)[C@@H](CC(=O)NO)CC(C)C)C(C)(C)C [Ro31-9790] |  | hypertrophic fibrosis of stifle ligaments, interstitial hypertrophic fibrosis of skeletal muscles, hypertrophic fibroplasia of the periostium and synovium, and chondrosysplasia and decreased endochondrial ossification of the ephyseal plate |
